Results taken from patent publication US6458767B1, “Use of peptides inhibitory for thrombospondin dependent TGF-β activation in the treatment of kidney disease” (The UAB Research Foundation, priority 1994, dated 2002).
Ends that are not written are not given here.

What was measured:
TGF-β = test: Glomerular secretion of active TGF-β (NRK-bioassay of supernatants of isolated glomeruli) in anti-Thy1 rats; type: in vivo, rat; settings: for Active TGF-β (colonies > 62 um): day 8 glomeruli, 24 h supernatant, NRK-bioassay, continuous i.v. peptide infusion
Source text: (§1) Experimental design. Experimental mesangial proliferative glomerulonephritis was induced using the monoclonal mouse anti-Thy1 antibody OX-7. Peptides were continuously infused intravenously (i.v.) via jugular vein using osmotic minipumps starting sixteen hours after disease induction. The effects of the hexapeptide AAWSHW (SEQ ID NO:22) (that interferes with the TSP1-mature TGF-β interaction) or the LSKL-peptide (SEQ ID NO:21) (that blocks the TSP1-LAP interaction) were compared to a control peptide (SLLK) in the anti-Thy1 model. Tissues from different time points (days three, five, eight) of this experiment were analyzed in regard to mesangiolysis, macrophage-influx, MC-proliferation, MC-activation, microaneurysm and matrix formation, GEN proliferation, TSP1, TGF-β1 and 2, as well as TGF-βRI and RII. Functional parameters such as blood pressure, proteinuria, and creatinine clearance were also determined. On day eight, glomerular secretion of active TGF-β was determined in individual animals by incubating isolated glomeruli for twenty-four hours in DMEM and measuring TGF-β activity in glomerular supernatants using the NRK-bioassay.
(§2) Animal model Experimental mesangial proliferative glomerulonephritis (anti-Thy1 model) was induced in Sprague Dawley rats (180-200 g; Charles River, Sulzfeld, Germany) by a single injection of 1 mg/kg of the mouse monoclonal anti-Thy1 antibody OX-7 (European Collection of Animal Cell Culture, Salisbury, England). In this animal model, complete anti-Thy1 antibody binding occurs within an hour (Johnson et al. (1991) Am. J. Pathol. 138 (2), 313-21). To avoid potential interference of the LAP-peptides with anti-Thy1 antibody binding and subsequent mesangiolysis, the peptide treatment was started sixteen hours after disease induction, when binding of the anti-Thy1 antibody to the mesangium and subsequent mesangiolysis had already occurred. The peptides used in this study were synthesized, purified, and analyzed as described elsewhere (Crawford et al. (1998) Cell 93, 1159-1170).
Renal biopsies as described previously (Hugo et al. (1997) J. Clin. Invest. 100, 786-794) were performed on days three and five, and the experiment was finished on day eight. To determine DNA incorporation into proliferating cells, each animal was injected intravenously with BrdU (50 mg/kg bw) ninety minutes before the second survival biopsy was taken on day five (peak of MC proliferation). Renal biopsies were fixed in methyl Carnoy's, 10% formalin and/or OCT and snap frozen. A twenty-four hour urine collection for measurement of protein and creatinine was done from day seven to eight, when maximal proteinuria occurs in this model (unpublished observation). Blood pressure measurements were done twice before and twice after disease induction. In renal biopsies, the frequency of glomerular microaneurysms, the number of infiltrating macrophages, the number of proliferating MC, the expression of the contractile protein α-sm actin as a marker of MC-activation, and the expression of TGF-β1, TGF-β2, TGF-βRI, TGF-βRII, TSP1, as well as of extracellular matrix proteins such as collagen I, collagen IV and fibronectin were determined. For TGF-β activity measurements in individual animals on day eight, glomeruli were isolated by differential sieving (Johnson et al. (1991) Am. J. Pathol. 138 (2), 313-21) and counted using five aliquots. Glomerular isolates were discarded if purity was less than 95%. 8000 glomeruli/ml were incubated in DMEM at 37° C. […]

[1] = test system: rats with anti-Thy1 disease; test: Mesangiolysis, microaneurysm formation and GEN-proliferation in the anti-Thy1 model; type: in vivo, rat; settings: for Glomerular GEN-proliferation (double staining for RECA-1 and PCNA) / mesangiolysis scores: day three; for mesangiolysis scores: scale 0-IV
Source text: as §1, §2
(§3) Renal biopsies as described previously (Hugo et al. (1997) J. Clin. Invest. 100, 786-794) were performed on days three and five, and the experiment was finished on day eight. To determine DNA incorporation into proliferating cells, each animal was injected intravenously with BrdU (50 mg/kg bw) ninety minutes before the second survival biopsy was taken on day five (peak of MC proliferation). Renal biopsies were fixed in methyl Carnoy's, 10% formalin and/or OCT and snap frozen. A twenty-four hour urine collection for measurement of protein and creatinine was done from day seven to eight, when maximal proteinuria occurs in this model (unpublished observation). Blood pressure measurements were done twice before and twice after disease induction. In renal biopsies, the frequency of glomerular microaneurysms, the number of infiltrating macrophages, the number of proliferating MC, the expression of the contractile protein α-sm actin as a marker of MC-activation, and the expression of TGF-β1, TGF-β2, TGF-βRI, TGF-βRII, TSP1, as well as of extracellular matrix proteins such as collagen I, collagen IV and fibronectin were determined. For TGF-β activity measurements in individual animals on day eight, glomeruli were isolated by differential sieving (Johnson et al. (1991) Am. J. Pathol. 138 (2), 313-21) and counted using five aliquots. Glomerular isolates were discarded if purity was less than 95%. 8000 glomeruli/ml were incubated in DMEM at 37° C. After a twenty-four hour incubation period, glomerular supernatants were stored by −70° C. until TGF-β activity measurements were done.
(§4) Peptide infusion. All peptides (at a concentration of 3.5 mg/ml) were continuously infused for seven days via a catheter in the right jugular vein using osmotic minipumps (Alzet Corp./Charles River, Sulzfeld, Germany). […]

[2] = test system: activation of TGF-β by TSP1; settings: background, literature; cited from earlier work
[3] = test system: rats with anti-Thy1 disease; test: Glomerular extracellular matrix formation (Masson's Trichrome, collagen I, collagen IV, fibronectin stains) in the anti-Thy1 model; type: in vivo, rat
Source text: as §1, §2, §3, §4

[4] = test system: rats with anti-Thy1 disease; test: Glomerular immunostaining score for TGF-β1, TGF-β2, TGF-βRI, TGF-βRII and TSP1 in the anti-Thy1 model; type: in vivo, rat
Source text: as §1, §2, §3, §4

[5] = test system: rats with anti-Thy1 disease; test: Functional parameters (proteinuria, creatinine clearance, blood urea nitrogen, systolic blood pressure) in the anti-Thy1 model; type: in vivo, rat; settings: for Proteinuria (mg/24 hours): day 8 (urine collection day seven to eight); for twenty-four hour proteinuria: days seven to eight; for Blood urea nitrogen: rat, in vivo
Source text: as §1, §2, §3, §4

[6] = test system: rats with anti-Thy1 disease; test: Glomerular MC-proliferation, MC-activation and macrophage influx in the anti-Thy1 model; type: in vivo, rat
Source text: as §1, §2, §3, §4

## AAWSHW
TGF-β
  Active TGF-β (colonies > 62 um): 220 ± 70 colonies > 62 um
TGF-β; day eight glomeruli, p<0.01
  glomerular secretion of active TGF-β compared to control peptide (SLLK) treated rats: markedly reduced
[1]; day 3
  Glomerular Microaneurysm (in percent): 12.2 ± 11.6%
[1]; day 5
  Glomerular Microaneurysm (in percent): 15.5 ± 11.8%
[1]; day 8
  Glomerular Microaneurysm (in percent): 1.6 ± 1.8%
[1]
  Glomerular GEN-proliferation (double staining for RECA-1 and PCNA): 1.8±0.6
  mesangiolysis scores: 2.5±0.4
[2]
  block of activation of TGF-β by TSP1: able to block activation of TGF-β by TSP1
[3]; day 3
  Matrix Collagen 1 (score 0-4): 0.1 ± 0.1 score 0-4
  Matrix Collagen IV (score 0-4): 1.0 ± 0.5 score 0-4
  Matrix Fibronectin (score 0-4): 1.3 ± 0.3 score 0-4
  Matrix Trichrome (score 0-3): 0.5 ± 0.3 score 0-3
[3]; day 5
  Matrix Collagen 1 (score 0-4): 0.8 ± 0.6 score 0-4
  Matrix Collagen IV (score 0-4): 2.1 ± 0.6 score 0-4
  Matrix Fibronectin (score 0-4): 1.9 ± 1.2 score 0-4
  Matrix Trichrome (score 0-3): 0.9 ± 0.3 score 0-3
[3]; day 8
  Matrix Collagen 1 (score 0-4): 1.0 ± 0.6 score 0-4
  Matrix Collagen IV (score 0-4): 1.3 ± 0.5 score 0-4
  Matrix Fibronectin (score 0-4): 1.2 ± 0.8 score 0-4
  Matrix Trichrome (score 0-3): 1.4 ± 0.4 score 0-3
[3]; day eight, in words
  extracellular matrix formation as determined by Trichrome staining: markedly suppressed
[3]; time course of anti-Thy1 disease, in words
  glomerular accumulation of collagen I, collagen IV and fibronectin by immunohistochemistry: reduced glomerular accumulation of all three extracellular matrix proteins
[4]; day 3
  TGF-β1 (score 0-4): 0.4 ± 0.2 score 0-4
  TGF-β2 (score 0-4): 0.4 ± 0.3 score 0-4
  TGF-βRI (score 0-4): 0.5 ± 0.3 score 0-4
  TGF-βRII (score 0-4): 0.5 ± 0.5 score 0-4
  TSP I (score 0-4): 0.6 ± 0.2 score 0-4
[4]; day 5
  TGF-β1 (score 0-4): 1.9 ± 0.9 score 0-4
  TGF-β2 (score 0-4): 1.1 ± 0.7 score 0-4
  TGF-βRI (score 0-4): 1.9 ± 0.4 score 0-4
  TGF-βRII (score 0-4): 1.4 ± 0.6 score 0-4
  TSP I (score 0-4): 1.5 ± 0.9 score 0-4
[4]; day 8
  TGF-β1 (score 0-4): 1.6 ± 1.1 score 0-4
  TGF-β2 (score 0-4): 0.5 ± 0.4 score 0-4
  TGF-βRI (score 0-4): 1.6 ± 0.6 score 0-4
  TGF-βRII (score 0-4): 1.2 ± 0.5 score 0-4
  TSP I (score 0-4): 0.8 ± 0.7 score 0-4
[5]
  Proteinuria (mg/24 hours): 51 ± 50 mg/24 hours
  twenty-four hour proteinuria: 51±50 mg/twenty-four hours
  Blood urea nitrogen: 23.6 ± 7.1 mg/dL
[6]; day 3
  MC-activation α-sm actin (score 0-4): 1.1 ± 0.5 score 0-4
  MC-proliferation (OX-7 + /PCNA + cells/glomerulus): 3.1 ± 0.8 cells/glomerulus
  Macrophages (ED-1 + cells/glomerulus): 3.0 ± 1.8 cells/glomerulus
[6]; day 5
  MC-activation α-sm actin (score 0-4): 2.8 ± 0.5 score 0-4
  MC-proliferation (OX-7 + /BrdU + cells/glomerulus): 4.6 ± 1.9 cells/glomerulus
  MC-proliferation (OX-7 + /PCNA + cells/glomerulus): 8.5 ± 1.6 cells/glomerulus
  Macrophages (ED-1 + cells/glomerulus): 0.9 ± 0.5 cells/glomerulus
[6]; day 8
  MC-activation α-sm actin (score 0-4): 2.5 ± 0.4 score 0-4
  MC-proliferation (OX-7 + /PCNA + cells/glomerulus): 3.9 ± 0.8 cells/glomerulus
  Macrophages (ED-1 + cells/glomerulus): 0.7 ± 0.3 cells/glomerulus
[6]; in words
  MC activation (de novo expression of α-sm-actin): did not significantly alter

## control/SLLK: control peptide SLLK (SEQ ID NO:47), group 1 [reference compound]
TGF-β
  Active TGF-β (colonies > 62 um): 380 ± 60 colonies > 62 um
[1]; day 3
  Glomerular Microaneurysm (in percent): 34.0 ± 30.1%
[1]; day 5
  Glomerular Microaneurysm (in percent): 20.6 ± 22.7%
[1]; day 8
  Glomerular Microaneurysm (in percent): 6.0 ± 5.9%
[1]
  Glomerular GEN-proliferation (double staining for RECA-1 and PCNA): 2.2 cells/glomerular cross-section
  mesangiolysis scores: 2.7±0.5
[3]; day 3
  Matrix Collagen 1 (score 0-4): 0.1 ± 0.1 score 0-4
  Matrix Collagen IV (score 0-4): 1.2 ± 0.4 score 0-4
  Matrix Fibronectin (score 0-4): 1.5 ± 0.8 score 0-4
  Matrix Trichrome (score 0-3): 0.7 ± 0.3 score 0-3
[3]; day 5
  Matrix Collagen 1 (score 0-4): 2.3 ± 0.5 score 0-4
  Matrix Collagen IV (score 0-4): 3.3 ± 0.4 score 0-4
  Matrix Fibronectin (score 0-4): 3.2 ± 0.4 score 0-4
  Matrix Trichrome (score 0-3): 1.5 ± 0.2 score 0-3
[3]; day 8
  Matrix Collagen 1 (score 0-4): 2.0 ± 0.5 score 0-4
  Matrix Collagen IV (score 0-4): 2.6 ± 0.6 score 0-4
  Matrix Fibronectin (score 0-4): 2.3 ± 0.9 score 0-4
  Matrix Trichrome (score 0-3): 2.3 ± 0.4 score 0-3
[4]; day 3
  TGF-β1 (score 0-4): 0.2 ± 0.2 score 0-4
  TGF-β2 (score 0-4): 0.2 ± 0.1 score 0-4
  TGF-βRI (score 0-4): 0.4 ± 0.2 score 0-4
  TGF-βRII (score 0-4): 0.4 ± 0.3 score 0-4
  TSP I (score 0-4): 0.2 ± 0.2 score 0-4
[4]; day 5
  TGF-β1 (score 0-4): 2.6 ± 0.6 score 0-4
  TGF-β2 (score 0-4): 1.6 ± 0.4 score 0-4
  TGF-βRI (score 0-4): 1.9 ± 0.5 score 0-4
  TGF-βRII (score 0-4): 1.9 ± 0.5 score 0-4
  TSP I (score 0-4): 2.0 ± 0.6 score 0-4
[4]; day 8
  TGF-β1 (score 0-4): 1.5 ± 0.8 score 0-4
  TGF-β2 (score 0-4): 1.3 ± 0.8 score 0-4
  TGF-βRI (score 0-4): 1.8 ± 0.9 score 0-4
  TGF-βRII (score 0-4): 1.3 ± 0.8 score 0-4
  TSP I (score 0-4): 0.6 ± 0.3 score 0-4
[5]
  Proteinuria (mg/24 hours): 83 ± 40 mg/24 hours
  twenty-four hour proteinuria: 83±40 mg/twenty-four hours
  Blood urea nitrogen: 33.2 ± 12.7 mg/dL
[6]; day 3
  MC-activation α-sm actin (score 0-4): 0.8 ± 0.4 score 0-4
  MC-proliferation (OX-7 + /PCNA + cells/glomerulus): 3.6 ± 0.7 cells/glomerulus
  Macrophages (ED-1 + cells/glomerulus): 4.5 ± 1.6 cells/glomerulus
[6]; day 5
  MC-activation α-sm actin (score 0-4): 2.9 ± 0.3 score 0-4
  MC-proliferation (OX-7 + /BrdU + cells/glomerulus): 4.7 ± 0.8 cells/glomerulus
  MC-proliferation (OX-7 + /PCNA + cells/glomerulus): 9.1 ± 1.5 cells/glomerulus
  Macrophages (ED-1 + cells/glomerulus): 1.9 ± 0.5 cells/glomerulus
[6]; day 8
  MC-activation α-sm actin (score 0-4): 2.9 ± 0.5 score 0-4
  MC-proliferation (OX-7 + /PCNA + cells/glomerulus): 4.2 ± 0.5 cells/glomerulus
  Macrophages (ED-1 + cells/glomerulus): 1.5 ± 0.5 cells/glomerulus
